Measurements as given in ChEMBL document CHEMBL4376863, “Identification of Selective Inhibitors of Plasmodium N-Myristoyltransferase by High-Throughput Screening” (J Med Chem, 2020).
Calls of active or inactive are those of the source. The calls are words filed in the database; no cut-off is given here.

Experiments:
[1] = test system: Plasmodium falciparum; experiment: Antiplasmodial activity against asexual blood stage Plasmodium falciparum 3D7A MR4 infected in human RBCs assessed as decrease in [3H]-hypoxanthine incorporation pretreated for 24 hrs in presence of hypoxanthine followed by [3H]-hypoxanthine addition after 24 hrs by microbeta scintillation counter analysis; type: functional, organism-based
[2] = target: T1, Glycylpeptide N-tetradecanoyltransferase (Plasmodium falciparum (isolate 3D7)) (UniProt Q8ILW6); experiment: Competitive inhibition of Plasmodium falciparum NMT (27 to 410 residues) expressed in Escherichia coli Rosetta (DE3) using H-GLYVSRLFNRLFQKK-NH2 as substrate
T1 sequence (whole entry): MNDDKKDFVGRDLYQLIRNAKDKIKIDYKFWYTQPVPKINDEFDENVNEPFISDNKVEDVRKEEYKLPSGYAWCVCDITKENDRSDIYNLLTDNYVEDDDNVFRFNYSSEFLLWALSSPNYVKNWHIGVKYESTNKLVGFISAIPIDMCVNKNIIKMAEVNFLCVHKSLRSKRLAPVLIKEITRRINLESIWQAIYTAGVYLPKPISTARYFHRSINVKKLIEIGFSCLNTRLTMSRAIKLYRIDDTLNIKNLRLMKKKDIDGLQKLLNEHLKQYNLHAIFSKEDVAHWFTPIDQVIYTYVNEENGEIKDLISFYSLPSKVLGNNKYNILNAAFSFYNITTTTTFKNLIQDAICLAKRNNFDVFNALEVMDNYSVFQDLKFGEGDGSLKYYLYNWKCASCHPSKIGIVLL

[3] = target: T1, Glycylpeptide N-tetradecanoyltransferase (Plasmodium falciparum (isolate 3D7)); experiment: Binding affinity to Plasmodium falciparum NMT (27 to 410 residues) expressed in Escherichia coli Rosetta (DE3) assessed as change in melting temperature at 100 uM in presence of 100 uM myristoyl-CoA by Sypro orange dye based differential scanning fluorimetry (reference value: 0 degreeC)
[4] = target: T1, Glycylpeptide N-tetradecanoyltransferase (Plasmodium falciparum (isolate 3D7)); experiment: Binding affinity to Plasmodium falciparum NMT (27 to 410 residues) expressed in Escherichia coli Rosetta (DE3) assessed as change in melting temperature at 100 uM in absence of 100 uM myristoyl-CoA by Sypro orange dye based differential scanning fluorimetry (reference value: 0 degreeC)

Row | SMILES | inhibition [2] | ΔTm [3] [°C] | ΔTm [4] [°C] | Activity [1]
1 | O=C(c1ccc2c(c1)N(Cc1ccccc1)C(=O)c1ccccc1[S+]2[O-])N1CCCCC1 (stereo not drawn) | – | 8.05 | 1.84 | inactive
2 | CCN(c1ccccc1)S(=O)(=O)c1ccc(Cl)c(C(=O)Nc2ccccc2N2CCCC2=O)c1 | – | 7.33 | 1.42 | inactive
3 | Cc1ccc(-n2nc(C(=O)N3CCCN(C)CC3)c3ccccc32)cc1 | Active | 6.17 | -0.02 | inactive

More lines, main results first:

Row | inhibition [2] | ΔTm [3] [°C] | ΔTm [4] [°C] | SMILES | Activity [1]
4 | Active | 2.16 | -0.3 | O=C(c1cccc(NCc2cc(-c3ccc(Cl)cc3)c[nH]c2=O)c1)N1CCOCC1 | inactive
5 | Active | 6.57 | -2.91 | Clc1cccc(O[C@H]2C[C@H](NCc3cnc4[nH]ccc4c3)C2)c1Cl | inactive
